Source: patent publication US6245817A, “NPY5 receptor antagonists and methods for using same” (Bayer Corporation, priority 1999, dated 2001)
Like-named read-outs stand apart in the source and are kept apart here.

What was measured:
Human NPY5 Receptor = biological target: T1, Human NPY5 Receptor (Homo sapiens, UniProt Q15761); assay: Human NPY5 Receptor Binding Assay
T1 sequence (Q15761 1-445): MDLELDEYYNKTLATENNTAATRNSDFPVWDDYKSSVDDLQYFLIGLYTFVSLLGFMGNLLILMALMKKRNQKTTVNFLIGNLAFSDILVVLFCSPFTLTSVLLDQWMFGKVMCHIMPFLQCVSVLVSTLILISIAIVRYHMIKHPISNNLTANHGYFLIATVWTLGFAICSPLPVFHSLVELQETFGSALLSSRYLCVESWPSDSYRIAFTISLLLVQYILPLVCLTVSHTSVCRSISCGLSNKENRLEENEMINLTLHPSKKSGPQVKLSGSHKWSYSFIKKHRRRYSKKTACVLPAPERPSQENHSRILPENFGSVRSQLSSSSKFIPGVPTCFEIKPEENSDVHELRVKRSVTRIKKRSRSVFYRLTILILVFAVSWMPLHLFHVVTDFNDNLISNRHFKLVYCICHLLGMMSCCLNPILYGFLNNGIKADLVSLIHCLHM

Human NPY2 receptor = biological target: T2, Human NPY2 receptor (Homo sapiens, UniProt P49146); assay: Human NPY2 Receptor Binding Assay
T2 sequence (P49146 1-381): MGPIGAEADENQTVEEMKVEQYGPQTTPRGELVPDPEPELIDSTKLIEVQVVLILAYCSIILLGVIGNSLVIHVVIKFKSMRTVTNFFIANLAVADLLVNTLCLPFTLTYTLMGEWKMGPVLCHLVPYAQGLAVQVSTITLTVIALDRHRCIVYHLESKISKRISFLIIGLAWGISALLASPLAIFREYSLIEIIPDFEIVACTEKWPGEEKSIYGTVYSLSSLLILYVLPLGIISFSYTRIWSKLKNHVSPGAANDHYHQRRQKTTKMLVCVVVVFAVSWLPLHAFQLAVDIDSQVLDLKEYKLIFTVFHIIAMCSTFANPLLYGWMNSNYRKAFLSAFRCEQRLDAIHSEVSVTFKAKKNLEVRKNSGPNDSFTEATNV

[1] = [125I]PYY, read-out: hNPY5 IC50
[2] = [125I]PYY, read-out: hPPY2 IC50

Q: With `Cc1ccc2[nH]c(SCC(=O)Nc3ccc(C4CCCCC4)cc3)nc2c1` [Compound 21, N-(4-Cyclohexyl-phenyl)-2-(5-methyl-1H-benzolmidazol-2-ylsulfanyl)-acetamide] as the molecule, how does the IC50 (Human NPY5 Receptor; [1]) read?
A: 430 nM

Q: And the IC50 (Human NPY2 receptor; [2])?
A: > 5000 nM

Q: What does the source list for `Cn1nnnc1SCC(=O)Nc1ccc(C(=O)c2ccccc2)cc1` [Compound 45, N-(4-Benzoyl-phenyl)-2-(1-methyl-1H-tetrazol-5-ylsulfanyl)-acetamide]?
A: IC50 (Human NPY5 Receptor; [1]): 170 nM; IC50 (Human NPY2 receptor; [2]): > 5000 nM

Q: With `O=C(CSc1cccc[n+]1[O-])Nc1ccc(C2CCCCC2)cc1` [Compound 36, N-(4-Cyclohexyl-phenyl)-2-(1-oxy-pyridin-2-ylsulfanyl)-acetamide] as the molecule, how does the IC50 (Human NPY5 Receptor; [1]) read?
A: 110 nM

Q: What about the IC50 (Human NPY2 receptor; [2]) of the same molecule?
A: > 5000 nM

Q: How did the IC50 (Human NPY5 Receptor; [1]) turn out when `O=C(CSCCO)Nc1ccc(C(=O)c2ccccc2)cc1` [Compound 40, N-(4-Benzoyl-phenyl)-2-(2-hydroxy-ethylsulfanyl)-acetamide] was run?
A: 690 nM

Q: What about the IC50 (Human NPY2 receptor; [2]) of the same molecule?
A: > 5000 nM

Q: Which IC50 (Human NPY5 Receptor; [1]) does the source give for `O=C(CSc1ccc(F)cc1)Nc1ccc(C2CCCCC2)cc1` [Compound 53] here?
A: 210 nM

Q: And the IC50 (Human NPY2 receptor; [2])?
A: > 5000 nM

Q: How did the IC50 (Human NPY5 Receptor; [1]) turn out when `Nc1nc(SCC(=O)Nc2ccc(C3CCCCC3)cc2)n[nH]1` [Compound 57, 2-(-Amino-2H-[1,2,4]triazol-3-ylsulfanyl)-N-(4-cyclohexyl-phenyl)-acetamide] was run?
A: > 1000 nM

Q: What about the IC50 (Human NPY2 receptor; [2]) of the same molecule?
A: > 5000 nM

Q: With `O=C(CSCC(O)CO)Nc1ccc(C(=O)c2ccccc2)cc1` (centres unmarked) [Compound 42, N-(4-Benzoyl-phenyl)-2-(2,3-dihydroxy-propylsulfanyl)-acetamide] as the molecule, how does the IC50 (Human NPY5 Receptor; [1]) read?
A: 1500 nM

Q: What about the IC50 (Human NPY2 receptor; [2]) of the same molecule?
A: > 5000 nM

Q: `O=C(CSc1ccc(O)cc1)Nc1ccc(C2CCCCC2)cc1` [Compound 55] was tested. Which IC50 (Human NPY5 Receptor; [1]) did it give?
A: 1700 nM

Q: What about the IC50 (Human NPY2 receptor; [2]) of the same molecule?
A: > 5000 nM

Q: Which results are given for `O=C(CSc1ccncc1)Nc1ccc(C(=O)c2ccccc2)cc1` [Compound 41, N-(4-Benzoyl-phenyl)-2-(pyridin-4-ylsulfanyl)-acetamide]?
A: IC50 (Human NPY5 Receptor; hNPY5 IC50, [125I]PYY): 330 nM; IC50 (Human NPY2 receptor): > 5000 nM

Q: Which results are given for `O=C(CSc1ccc(F)cc1)Nc1ccc(C(=O)c2ccccc2)cc1` [Compound 63, N-(4-Benzoyl-phenyl)-2-(4-fluoro-phenylsulfanyl)-acetamide]?
A: IC50 (Human NPY5 Receptor; [1]): 650 nM; IC50 (Human NPY2 receptor; [2]): > 5000 nM

Q: Which IC50 (Human NPY5 Receptor; [1]) does the source give for `O=C(CSc1ncnc2nc[nH]c12)Nc1ccc(C(=O)c2ccccc2)cc1` [Compound 28, N-(4-Benzoyl-phenyl)-2-(7H-purin-ylsulfanyl)-acetamide] here?
A: > 10000 nM

Q: What about the IC50 (Human NPY2 receptor; [2]) of the same molecule?
A: > 5000 nM

Q: Which IC50 (Human NPY5 Receptor; [1]) does the source give for `O=C(CSc1nc2cc([N+](=O)[O-])ccc2[nH]1)Nc1ccc(C(=O)c2ccccc2)cc1` [Compound 18, N-(4-Benzoyl-phenyl)-2-(5-nitro-1H-benzolmidazol-2-ylsulfanyl)-acetamide] here?
A: 200 nM

Q: And the IC50 (Human NPY2 receptor; [2])?
A: > 5000 nM

Q: With `Nc1nc(SCC(=O)Nc2ccc(C(=O)c3ccccc3)cc2)nc2[nH]ncc12` [Compound 69, 2-(4-Amino-1H-pyrazolo[3,4-d]pyrimidin-6-ylsulfanyl)-N-(4-benzoyl-phenyl)-acetamide] as the molecule, how does the IC50 (Human NPY5 Receptor; [1]) read?
A: 6800 nM

Q: And the IC50 (Human NPY2 receptor; [2])?
A: > 5000 nM

Q: Which results are given for `O=C(CSc1nc2cc(Cl)ccc2s1)Nc1ccc(C(=O)c2ccccc2)cc1` [Compound 71, N-(4-Benzoyl-phenyl)-2-(5-chloro-benzothiazol-2-ylsulfanyl)-acetamide]?
A: IC50 (Human NPY5 Receptor; [1]): 1300 nM; IC50 (Human NPY2 receptor; [2]): > 5000 nM

Q: Which IC50 (Human NPY5 Receptor; [1]) does the source give for `O=C(CSCCO)Nc1ccc(C2CCCCC2)cc1` [Compound 33, N-(4cydohexyl-phenyl)-2-(2-hydroxy-ethylsulfanyl)-acetamide] here?
A: 69 nM

Q: And the IC50 (Human NPY2 receptor; [2])?
A: > 5000 nM

Q: What does the source list for `O=C(CSc1nc[nH]n1)Nc1ccc(C(=O)c2ccccc2)cc1` [Compound 66, N-(4-Benzoyl-phenyl)-2-(1H-[1,2,4]triazol-3-ylsulfanyl)-acetamide]?
A: IC50 (Human NPY5 Receptor; [1]): 1700 nM; IC50 (Human NPY2 receptor; [2]): > 5000 nM

Q: What does the source list for `O=C(CSc1ncnc2c1ncn2[C@@H]1O[C@H](CO)[C@H](O)[C@H]1O)Nc1ccc(C(=O)c2ccccc2)cc1` [Compound 24, N-(4-Benzoyl-phenyl)-2-[9-((2R,3R,4R,5R)-3,4-dihydroxy-hydroxymethy-tetrahydro-furan-2-yl)-9H-purin-ylsulfanyl]-acetamide]?
A: IC50 (Human NPY5 Receptor; [1]): > 10000 nM; IC50 (Human NPY2 receptor; [2]): > 5000 nM

Q: Which results are given for `O=C(CSc1nc2ccccc2c(=O)[nH]1)Nc1ccc(C2CCCCC2)cc1` [Compound 25, N-(4-Cyclohexyl-phenyl)-2-(4-oxo-3,-dihydro-quinazolin-2-ylsulfanyl)-acetamide]?
A: IC50 (Human NPY5 Receptor; [1]): > 10000 nM; IC50 (Human NPY2 receptor; [2]): > 5000 nM

Q: What does the source list for `O=C(CSc1ncnc2c1ncn2[C@@H]1O[C@H](CO)[C@H](O)[C@H]1O)Nc1ccc(C2CCCCC2)cc1` [Compound 23, N-(4-Cyclohexyl-phenyl)-2-[9-((2R,3R,4R,5R)-3,4-dihydroxy-5-hydroxymethyl-tetrahydro-furan-2-yl)-9H-purin-6-ylsulfanyl]-acetamide]?
A: IC50 (Human NPY5 Receptor; [1]): > 10000 nM; IC50 (Human NPY2 receptor; [2]): > 5000 nM

Q: How did the IC50 (Human NPY5 Receptor; [1]) turn out when `O=C(CSc1nc2ccccc2o1)Nc1ccc(C(=O)c2ccccc2)cc1` [Compound 48, 2-(Benzooxazol-2-ylsulfanyl)-N-(4-benzoyl-phenyl)-acetamide] was run?
A: 3000 nM

Q: And the IC50 (Human NPY2 receptor; [2])?
A: > 5000 nM

Q: Which IC50 (Human NPY5 Receptor; [1]) does the source give for `O=C(CSc1nc[nH]n1)Nc1ccc(C2CCCCC2)cc1` [Compound 56, N-(4-Cyclohexyl-phenyl)-2-(1H-[1,2,4]triazol-3-ylsultanyl)-acetamide] here?
A: 730 nM

Q: And the IC50 (Human NPY2 receptor; [2])?
A: > 5000 nM

Q: With `CC(=O)Nc1ccc(SCC(=O)Nc2ccc(C(=O)c3ccccc3)cc2)cc1` [Compound 64, 2-(-Acetylamino-phenylsulfanyl)-N-(4-benzoyl-phenyl)-acetamide] as the molecule, how does the IC50 (Human NPY5 Receptor; [1]) read?
A: 2700 nM

Q: What about the IC50 (Human NPY2 receptor; [2]) of the same molecule?
A: > 5000 nM

Q: Which results are given for `O=C(CSc1ncccn1)Nc1ccc(C(=O)c2ccccc2)cc1` [Compound 49, N-(4-Benzoyl-phenyl)-2-(pyrimidin-2-ylsulfanyl)-cetarnide]?
A: IC50 (Human NPY5 Receptor; [1]): 1600 nM; IC50 (Human NPY2 receptor; [2]): > 5000 nM

Q: What does the source list for `COc1ccc2[nH]c(SCC(=O)Nc3ccc(C4CCCCC4)cc3)nc2c1` [Compound 19, N-(4-Cyclohexyl-phenyl)-2-(5-methoxy-1H-benzolmidazol-2-ylsulfanyl)-acetamide]?
A: IC50 (Human NPY5 Receptor; [1]): 710 nM; IC50 (Human NPY2 receptor; [2]): > 5000 nM

Q: How did the IC50 (Human NPY5 Receptor; [1]) turn out when `O=C(CSc1nnnn1-c1ccccc1)Nc1ccc(C(=O)c2ccccc2)cc1` [Compound 62, N-(4-Benzoyl-phenyl)-2-(1-phenyl-1H-tetrazol-5-ylsulfanyl)-acetamide] was run?
A: 300 nM

Q: What about the IC50 (Human NPY2 receptor; [2]) of the same molecule?
A: > 5000 nM

Q: `Cc1cc(C)nc(SCC(=O)Nc2ccc(C(=O)c3ccccc3)cc2)n1` [Compound 72, N-(4-Benzoyl-yl)-2-(4,6-dimethyl-pyrimidin-2-ylsulfanyl)-acetamide] was tested. Which IC50 (Human NPY5 Receptor; [1]) did it give?
A: 8400 nM

Q: What about the IC50 (Human NPY2 receptor; [2]) of the same molecule?
A: > 5000 nM

Q: What does the source list for `O=C(CSC1=NCCS1)Nc1ccc(C2CCCCC2)cc1` [Compound 31]?
A: IC50 (Human NPY5 Receptor; [1]): 640 nM; IC50 (Human NPY2 receptor; [2]): > 5000 nM

Q: Which IC50 (Human NPY5 Receptor; [1]) does the source give for `O=C(CSC1=NCCS1)Nc1ccc(C(=O)c2ccccc2)cc1` [Compound 32, N-(4-Benzoyl-phenyl)-2-(4,5-dihydro-thiazol-2-ylsulfanyl)-acetamide] here?
A: 1200 nM

Q: What about the IC50 (Human NPY2 receptor; [2]) of the same molecule?
A: > 5000 nM

Q: What does the source list for `O=C(CSc1ncnc2[nH]ncc12)Nc1ccc(C(=O)c2ccccc2)cc1` [Compound 43, N-(4-Benzoyl-phenyl)-2-(1H-pyrazolo[3,4-d]pyrimidin-4-ylsulfanyl)-acetamide]?
A: IC50 (Human NPY5 Receptor; [1]): 1300 nM; IC50 (Human NPY2 receptor; [2]): > 5000 nM

Q: For `Nc1n[nH]c(SCC(=O)Nc2ccc(C(=O)c3ccccc3)cc2)n1` [Compound 67, 2-(5-Amino-2H-[1,2,4]triazol-3-ylsulfanyl)-N-(4-benzoyl-phenyl)-acetamide], which IC50 (Human NPY5 Receptor; [1]) is on record?
A: 7600 nM

Q: And the IC50 (Human NPY2 receptor; [2])?
A: > 5000 nM

Q: Which IC50 (Human NPY5 Receptor; [1]) does the source give for `O=C(CSc1nc2cc([N+](=O)[O-])ccc2[nH]1)Nc1ccc(C2CCCCC2)cc1` [Compound 17, N-(4-Cyclohexyl-phenyl)-2-(5-nitro-1H-benzoimidazol-2-ylsulfanyl)-acetamide] here?
A: 380 nM

Q: And the IC50 (Human NPY2 receptor; [2])?
A: > 5000 nM
